Where “and” joins values, the source holds several entries; their conditions need not be identical. Equal values may be shown once. Read-outs that look alike come from different tables or passages of the source.
Experiments:
[1] = Absorbance and fluorescence measurements (excitation maximum, emission maximum, quantum yield vs coumarin 151); type: physicochemical; design: key to Quantum Yield: fraction relative to coumarin 151 in ethanol standard; settings: measurements run with methanol; for λex: absorbance/excitation maximum; for Quantum Yield: coumarin 151 in ethanol as standard; for Quantum Yield / λem: 2.5 mm slit width; for λem: emission maximum
Text: All reagents and solvents were acquired from commercially available suppliers and used without further purification. Methanol(dried on molecular sieves-Acroseal) was obtained from Acros. […] 1H and 13C NMR spectra were obtained on a Bruker NMR spectrometer at 500/400 and 125/100 MHz respectively. The data is reported as follows: chemical shift in ppm (δ), multiplicity (s=singlet, d=doublet, dd=doublet of doublets, t=triplet, dt=doublet of triplets, td=triplet of doublets, q=quartet, p=pentet, m=multiplet). Coupling constants are reported in Hertz (Hz) and were automatically generated using known NMR analyzer software (MestReNova), these were then subsequently curated. High-resolution mass spectra were obtained using the positive ESI method for all the compounds, obtained in an Ion Cyclotron Resonance (ICR) spectrometer. Absorbance spectra were obtained using an Agilent 8453 UV-visible spectroscopy system. Fluorescence was measured on a Varian (Agilent) Cary Eclipse Fluorimeter. Quantum yield measurements were calculated and reported using coumarin 151 in ethanol as a standard.^1 Fluorescence scans were obtained using a 2.5 mm slit width unless otherwise noted.
The fluorescence was also measured in different solvents to examine the solvent effects.

[2] = previously published amine, comparison in Example I; cited from earlier work

λex [1] [nm]	Quantum Yield [1]	λem [1]	Compound	Quantum Yield [2]	emission maxima [2] [nm]	excitation maxima [2] [nm]
343	0.02	473 nm	COC(=O)c1ccc2nc(-c3cc(OC)cc(OC)c3)c(N)n2c1 [Compound 10w, methyl 3-amino-2-(3,5-dimethoxyphenyl)imidazo[1,2-a]pyridine-6-carboxylate]			
366	0.34	418 nm	COc1cccc(-c2nc3c(nc4ccccn43)c3c(OC)c(OC)ccc23)c1OC [Compound 16b, 5-(2,3-dimethoxyphenyl)-1,2-dimethoxypyrido[2′,1′:2,3]imidazo[4,5-c]isoquinoline]			
296	0.07	510 nm	COc1cc(-c2nc3c(nc4ncccn43)c3cc(OC)c(OC)c(OC)c23)cc(OC)c1OC [Compound 16g, 2,3,4-trimethoxy-5-(3,4,5-trimethoxyphenyl)pyrimido[2′,1′:2,3]imidazo[4,5-c]isoquinoline]			
361	0.05	417 nm	COc1cccc(-c2nc3c(nc4ccccn43)c3cc(OC)ccc23)c1 [Compound 16a, 2-methoxy-5-(3-methoxyphenyl)pyrido[2′,1′:2,3]imidazo[4,5-c]isoquinoline]	0.02	505	292
453	0.11	636 nm	Cc1nn2c(NC(C)(C)C)c(-c3ccccc3)nc2nc1/C=C/c1ccccc1 [Compound 42, (E)-N-(tert-butyl)-2-methyl-6-phenyl-3-styrylimidazo[1,2-b][1,2,4]triazin-7-amine]			
513	0.33	647 nm	Cc1nn2c(NC(C)(C)C)c(-c3cccs3)nc2nc1/C=C/c1cccs1 [Compound 47, (E)-N-(tert-butyl)-2-methyl-6-(thiophen-2-yl)-3-(2-(thiophen-2-yl)vinyl)imidazo[1,2-b][1,2,4]triazin-7-amine]			
367	0.01	428 nm	COc1cc(-c2nc3c(nc4ccccn43)c3cc(OC)c(OC)c(OC)c23)cc(OC)c1OC [Compound 16c, 2,3,4-trimethoxy-5-(3,4,5-trimethoxyphenyl)pyrido[2′,1′:2,3]imidazo[4,5-c]isoquinoline]			

More lines, now with the values behind:

Compound	λex [1] [nm]	Quantum Yield [1]	λem [1]	Quantum Yield [2]	emission maxima [2] [nm]	excitation maxima [2] [nm]
COc1ccn2c(N)c(-c3ccc([N+](=O)[O-])cc3)nc2c1 [Compound 10au, 7-methoxy-2-(4-nitrophenyl)imidazo[1,2-a]pyridin-3-amine]	360					
COC(=O)c1ccn2c(N)c(-c3ccc(-c4ccccc4)cc3)nc2c1 [Compound 10aj, methyl 2-([1,1′-biphenyl]-4-yl)-3-aminoimidazo[1,2-a]pyridine-7-carboxylate]	403	0.45	517 nm			
COC(=O)c1ccn2c(N)c(-c3cc(OC)c(OC)c(OC)c3)nc2c1 [Compound 10al, methyl 3-amino-2-(3,4,5-trimethoxyphenyl)imidazo[1,2-a]pyridine-7-carboxylate]	399	0.51	512 nm			
(E)-2,3,4-trimethoxy-9-methyl-5-(3,4,5-trimethoxyphenyl)-10-(3,4,5-trimethoxystyryl)-[1,2,4]triazino[3′, 2′: 2,3]imidazo[4,5-c]isoquinolines [Compound 80]	499	0.25	604 nm			
COc1cc(OC)cc(-c2nc3ncccn3c2N)c1 [Compound 10r, 2-(3,5-dimethoxyphenyl)imidazo[1,2-a]pyrimidin-3-amine]	371	0.02	553 nm			
COC(=O)c1ccn2c(N)c(-c3cc(OC)cc(OC)c3)nc2c1 [Compound 10v, methyl 3-amino-2-(3,5-dimethoxyphenyl)imidazo[1,2-a]pyridine-7-carboxylate]	403	0.42	514 nm			
Nc1c(-c2ccc(N(c3ccccc3)c3ccccc3)cc2)nc2cccnn12 [Compound 10af, 2-(4-(diphenylamino)phenyl)imidazo[1,2-b]pyridazin-3-amine]	438	0.05	544 nm			
COc1ccc(-c2nc3cccnn3c2N)cc1 [Compound 10ac, 2-(4-methoxyphenyl)imidazo[1,2-b]pyridazin-3-amine]	435	0.03	543 nm			
Nc1c(-c2ccccc2)nc2ccccn12 [Compound 10f, 2-phenylimidazo[1,2-a]pyridin-3-amine]	339	0.30	473 nm			
COc1cc(OC)cc(-c2nc3ccccn3c2N)c1 [Compound 10d, 2-(3,5-dimethoxyphenyl)imidazo[1,2-a]pyridin-3-amine]	344	0.35	473 nm and 478 nm			
